Patent US5691189A (priority 1995, dated 1997)
“Also recorded” adds a separate entry of the source.

How the values were obtained:
Format in all cases: cell-based
[1] = molecular target: M2 (WSN, N31S) (M2 protein of Influenza A virus) (Influenza A virus (A/Wilson-Smith/1933(H1N1)), UniProt P05780, N31S)
[2] = molecular target: T1, M2 (WSN) (M2 protein of Influenza A virus) (Influenza A virus (A/Wilson-Smith/1933(H1N1)), UniProt P05780); conditions: inducing media (galactose), 30° C., A600 versus time; amantadine 100 μM (FIG. 4)
T1 construct: amantadine-resistant, natural Asn31

[3] = molecular target: Udorn M2 (M2 protein of Influenza A virus) (Influenza A virus (A/Udorn/307/1972(H3N2)), UniProt P0DOF5)

NC12CC3CC(CC(C3)C1)C2 [amantadine]
toxicity of overexpressed WSN(N31S) M2 allele in yeast on addition of amantadine to the media [1]: blocked | growth of yeast transformants expressing the amantadine-resistant WSN allele of M2 in the presence of amantadine [2]: not remediated | growth of yeast transformants expressing the Udorn allele of M2 in the presence of amantadine [3]: growth rescue; also recorded: grow at near wild-type rates
